IC50 data for 17 compounds are collected here from ChEMBL document CHEMBL1126838 (J Med Chem, 1993).

In the assay the target is Tyrosine-protein kinase Lck (Homo sapiens, UniProt P06239). Description: Tested in vitro for the inhibition of protein-tyrosine kinase p56lck using angiotensin I (1.2 mM) and [gamma-32P]-ATP (50 µM).
Sequence of Tyrosine-protein kinase Lck (P06239 whole entry): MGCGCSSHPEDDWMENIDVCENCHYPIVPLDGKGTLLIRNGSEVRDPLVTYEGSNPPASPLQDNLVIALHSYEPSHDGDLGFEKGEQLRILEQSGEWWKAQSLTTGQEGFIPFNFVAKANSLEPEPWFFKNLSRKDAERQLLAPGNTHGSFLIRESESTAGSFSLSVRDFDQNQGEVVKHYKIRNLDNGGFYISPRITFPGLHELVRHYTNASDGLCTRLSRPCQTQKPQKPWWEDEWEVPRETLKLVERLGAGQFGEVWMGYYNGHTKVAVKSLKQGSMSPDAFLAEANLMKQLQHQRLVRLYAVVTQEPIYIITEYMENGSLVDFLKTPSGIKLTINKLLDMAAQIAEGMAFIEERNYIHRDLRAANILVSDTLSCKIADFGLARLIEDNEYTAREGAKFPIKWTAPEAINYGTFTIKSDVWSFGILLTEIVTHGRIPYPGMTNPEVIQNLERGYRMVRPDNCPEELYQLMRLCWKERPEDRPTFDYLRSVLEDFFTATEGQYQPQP

For orientation: IC50 means the concentration that gives 50% inhibition. Low values mean inhibition by little substance, high ones a need for much substance. As to `Oc1cc(O)cc(/C=C/c2ccccc2)c1` [PINOSYLVIN], the IC50 was 193 µM. With `Oc1ccc(/C=C/c2cc(O)cc(O)c2)cc1` [RESVERATROL] the figure was 112 µM. `C(=C\c1cc(OCc2ccccc2)cc(OCc2ccccc2)c1)/c1ccccc1` returned an IC50 of over 2030 µM.

Regarding `C(=C\c1cc(OCc2ccccc2)cc(OCc2ccccc2)c1)/c1cccc(OCc2ccccc2)c1`, the 50% inhibitory concentration (IC50) was over 2030 µM. The compound `C(=C\c1ccc(OCc2ccccc2)c(OCc2ccccc2)c1)/c1cccc(OCc2ccccc2)c1` registered a half-inhibitory concentration (IC50) of over 2030 µM. In turn, `Oc1cc(O)cc(CCc2cc(O)cc(O)c2)c1` gave an IC50 of 487 µM.

The compound `Oc1cccc(/C=C/c2cc(O)cc(O)c2)c1` returned an IC50 of 17 µM.

For `C(=C\c1ccc(OCc2ccccc2)c(OCc2ccccc2)c1)/c1ccc(OCc2ccccc2)cc1`, the half-maximal inhibitory concentration (IC50) was over 2030 µM. `Oc1ccc(/C=C/c2ccccc2)cc1O` [(E)-3,4-STILBENDIOL] registered an IC50 of 203 µM. `Oc1cc(O)cc(/C=C/c2cc(O)cc(O)c2)c1` gave a concentration for half-maximal inhibition (IC50) of 16 µM.

`C(=C\c1cc(OCc2ccccc2)cc(OCc2ccccc2)c1)/c1ccc(OCc2ccccc2)cc1` returned an IC50 of over 2030 µM. With `Oc1ccc(/C=C/c2ccc(O)c(O)c2)cc1` the figure was 19 µM; with `C(=C\c1ccc(OCc2ccccc2)c(OCc2ccccc2)c1)/c1ccccc1`, over 2030 µM; with `Oc1cccc(/C=C/c2ccc(O)c(O)c2)c1`, 58 µM. Compound `Oc1cccc(/C=C/c2cccc(O)c2)c1` registered a concentration for half-maximal inhibition (IC50) of 234 µM.

For `Oc1cc(O)cc(CCc2ccc(O)c(O)c2)c1`, 1560 µM corresponded to half-maximal inhibition (IC50). `Oc1ccc(/C=C/c2ccc(O)c(O)c2)cc1O` had an IC50 of 74 µM.
